According to patent US20230159463A1, “BENZONITRIC HETEROCYCLIC COMPOUND, PREPARATION METHOD THEREFOR AND USE THEREOF” (SHANGHAI ZHONGZE THERAPEUTICS, CO. LTD., priority 2020, published 2023):
Like-named read-outs stand apart in the source and are kept apart here.

Tests used:
HDAC6 = biological target: T1, HDAC6 (Homo sapiens, UniProt Q9UBN7); test: HDAC6 inhibitor screening kit (Biovision), in vitro inhibitory activity; assay type: biochemical
T1 construct: purchased Biovision Company
T1 sequence (Q9UBN7 1-1215): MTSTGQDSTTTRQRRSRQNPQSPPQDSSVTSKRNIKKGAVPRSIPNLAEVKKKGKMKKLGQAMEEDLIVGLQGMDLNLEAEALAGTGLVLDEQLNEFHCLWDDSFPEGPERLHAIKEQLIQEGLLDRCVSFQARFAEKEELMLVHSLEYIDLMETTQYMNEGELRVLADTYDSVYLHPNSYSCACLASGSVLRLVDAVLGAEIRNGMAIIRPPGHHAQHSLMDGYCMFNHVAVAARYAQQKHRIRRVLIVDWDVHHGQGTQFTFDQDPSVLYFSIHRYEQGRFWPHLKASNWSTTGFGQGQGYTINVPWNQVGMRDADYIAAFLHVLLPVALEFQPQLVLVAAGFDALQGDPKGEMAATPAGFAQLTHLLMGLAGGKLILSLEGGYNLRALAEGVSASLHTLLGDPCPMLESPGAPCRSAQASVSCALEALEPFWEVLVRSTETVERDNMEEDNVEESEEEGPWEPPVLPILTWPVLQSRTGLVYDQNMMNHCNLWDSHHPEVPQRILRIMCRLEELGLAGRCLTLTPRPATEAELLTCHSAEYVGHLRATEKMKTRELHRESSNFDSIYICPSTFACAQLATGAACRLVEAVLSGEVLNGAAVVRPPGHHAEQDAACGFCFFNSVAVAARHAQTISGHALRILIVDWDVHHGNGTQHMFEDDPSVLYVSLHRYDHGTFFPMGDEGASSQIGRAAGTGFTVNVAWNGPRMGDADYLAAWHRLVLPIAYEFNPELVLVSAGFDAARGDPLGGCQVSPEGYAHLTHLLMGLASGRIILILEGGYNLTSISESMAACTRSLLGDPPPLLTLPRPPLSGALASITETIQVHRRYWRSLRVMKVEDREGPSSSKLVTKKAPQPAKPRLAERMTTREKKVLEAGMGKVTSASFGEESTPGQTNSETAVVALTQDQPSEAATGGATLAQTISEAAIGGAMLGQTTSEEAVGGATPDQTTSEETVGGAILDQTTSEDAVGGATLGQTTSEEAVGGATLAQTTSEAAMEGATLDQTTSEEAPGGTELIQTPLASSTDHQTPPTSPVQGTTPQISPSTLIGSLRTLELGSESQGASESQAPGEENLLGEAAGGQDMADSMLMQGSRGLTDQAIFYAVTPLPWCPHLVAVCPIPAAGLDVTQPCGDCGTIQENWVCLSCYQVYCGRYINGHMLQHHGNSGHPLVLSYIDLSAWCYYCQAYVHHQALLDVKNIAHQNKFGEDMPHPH
Protocol: (§1) The in vitro inhibitory activity of histone deacetylase of the compound was determined according to the instructions of HDAC1 and HDAC6 inhibitor screening kit (Biovision Company).

HDAC1 = biological target: T2, HDAC1 (Homo sapiens, UniProt Q13547); test: HDAC1 inhibitor screening kit (Biovision), in vitro inhibitory activity; assay type: biochemical
T2 construct: purchased Biovision Company
Protocol: as §1

glioma cell line U-87MG = test: In vitro anti-proliferative activity (CCK8), U-87MG; assay type: cell-based; conditions: Homo sapiens, read-out: U-87MG (Glioma) Inh % in 10 μM
[1] = tested on: myeloma cell line RPMI 8226; test: In vitro anti-proliferative activity (CCK8), RPMI 8226; assay type: cell-based; conditions: Homo sapiens, 48 hours, class symbol, read-out: RPMI 8226 (Myeloma) Inh % in 10 μM
Protocol: (§2) The specific results are shown in the table (unit: […] Test method: The tumor cells in the logarithmic growth phase with good growth status were inoculated into 96-well plates at 4×10^3 per well, and 8 duplicate wells were set up in each group. The cells were cultured in a cell incubator, after the cells adhered to the wall, […]. […] The experiment was repeated 3 times, and the average of the experimental results was taken as the final experimental result, and the inhibition rate was calculated.

[2] = tested on: human liver cancer cell line HepG2; test: In vitro anti-proliferative activity (CCK8), HepG2; assay type: cell-based; conditions: read-out: Hep G2 (Liver cancer) Inh % in 10 μM
Protocol: as §2

[3] = tested on: human lung cancer cell line A549; test: In vitro anti-proliferative activity (CCK8), A549; assay type: cell-based; conditions: read-out: A549 (Lung cancer) Inh % in 10 μM
Protocol: as §2

[4] = tested on: MRC-5 human normal embryo lung fibroblast; test: In vitro anti-proliferative activity (CCK8), MRC-5 normal cells; assay type: cell-based; conditions: read-out: MRC-5 (Normal cell line) Inh % in 10 μM
[5] = tested on: mixed cells and primary neurons in rat cortex; test: Protective effect on HCA-induced neuronal cell damage; assay type: cell-based; conditions: HCA 5 mmol/L; test concentration 0.1, 1.0 and 10.0 μM; compared with Tubastatin A at the same dose
hERG potassium channels = biological target: T3, hERG potassium channels (Homo sapiens, UniProt Q12809); test: hERG potassium channel whole-cell patch clamp; assay type: cell-based; conditions: hERG-HEK293 cells, IKr current
T3 construct: expressed in transfected cells
Text: Whole-cell patch clamp technique was used to record the changes of hERG current (IKr) after different concentrations of compounds acted on HEK293 cells (hERG-HEK293 steady-state cells) expressing hERG potassium channels to study the half inhibitory concentration (IC50) of the above compounds on IKr.

[6] = Maximum tolerance dose by intragastric administration; conditions: ICR, mouse, in vivo, po; mice, single intragastric administration, 14 days observation; read-out: maximum tolerated dose
Protocol: 40 ICR mice, half male and half […], weighing 18 to 20 g, were divided into 4 groups with 10 animals in each group. After 6 hours of fasting, the test samples in each group were taken with sterilized plastic syringe and orally gavaged at a volume of 0.3 mL/10 g. The general physical signs of animals and the death of animals were recorded at 1, 2 and 4 hours after administration. […] The dead animals were dissected to observe whether there were any visible pathological changes in the organs of the animals, and pathological examinations were carried out on suspicious tissues and organs.

[7] = tested on: myeloma cell line RPMI 8226; test: In vitro anti-proliferative activity (CCK8), RPMI 8226; assay type: cell-based; conditions: Homo sapiens, RPMI-8226, 48 h, read-out: RPMI 8226 (Myeloma) Inh % in 10 μM
[8] = 10 μM, 48 hours, CCK8, class symbol
[9] = HepG2, 10 μM, 48 hours, CCK8, class symbol
[10] = A549, 10 μM, 48 hours, CCK8, class symbol
[11] = MRC5, 10 μM, 48 hours, CCK8, class symbol

T3 sequence (Q12809 whole entry): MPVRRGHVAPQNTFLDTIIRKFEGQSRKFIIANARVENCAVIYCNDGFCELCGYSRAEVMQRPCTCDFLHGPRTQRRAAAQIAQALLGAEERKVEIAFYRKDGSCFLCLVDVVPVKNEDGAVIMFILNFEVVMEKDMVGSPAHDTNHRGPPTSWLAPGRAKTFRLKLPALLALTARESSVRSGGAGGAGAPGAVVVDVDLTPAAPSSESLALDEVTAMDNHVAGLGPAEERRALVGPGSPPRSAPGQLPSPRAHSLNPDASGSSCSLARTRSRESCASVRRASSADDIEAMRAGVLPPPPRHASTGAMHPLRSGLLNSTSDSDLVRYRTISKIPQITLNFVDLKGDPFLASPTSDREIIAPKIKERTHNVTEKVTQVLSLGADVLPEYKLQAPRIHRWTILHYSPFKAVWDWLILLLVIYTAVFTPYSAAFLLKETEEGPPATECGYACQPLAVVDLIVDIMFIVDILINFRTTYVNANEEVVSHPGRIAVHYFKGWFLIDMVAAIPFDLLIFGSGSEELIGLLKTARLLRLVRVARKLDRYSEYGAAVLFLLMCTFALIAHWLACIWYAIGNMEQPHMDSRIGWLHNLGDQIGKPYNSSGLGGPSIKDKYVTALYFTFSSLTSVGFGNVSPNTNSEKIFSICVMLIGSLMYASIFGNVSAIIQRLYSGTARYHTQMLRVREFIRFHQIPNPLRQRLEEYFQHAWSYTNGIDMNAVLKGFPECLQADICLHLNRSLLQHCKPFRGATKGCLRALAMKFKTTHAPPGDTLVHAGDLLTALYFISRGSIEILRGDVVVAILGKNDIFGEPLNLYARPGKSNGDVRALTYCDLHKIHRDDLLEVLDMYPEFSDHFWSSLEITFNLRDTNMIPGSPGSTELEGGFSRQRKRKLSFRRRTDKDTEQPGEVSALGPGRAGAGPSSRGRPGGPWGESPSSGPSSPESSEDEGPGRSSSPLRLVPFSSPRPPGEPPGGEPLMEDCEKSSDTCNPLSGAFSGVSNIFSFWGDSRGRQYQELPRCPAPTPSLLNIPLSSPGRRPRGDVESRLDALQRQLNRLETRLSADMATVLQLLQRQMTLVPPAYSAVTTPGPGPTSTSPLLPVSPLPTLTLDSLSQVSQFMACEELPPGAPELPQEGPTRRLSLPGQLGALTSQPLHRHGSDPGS
T2 sequence (Q13547 whole entry): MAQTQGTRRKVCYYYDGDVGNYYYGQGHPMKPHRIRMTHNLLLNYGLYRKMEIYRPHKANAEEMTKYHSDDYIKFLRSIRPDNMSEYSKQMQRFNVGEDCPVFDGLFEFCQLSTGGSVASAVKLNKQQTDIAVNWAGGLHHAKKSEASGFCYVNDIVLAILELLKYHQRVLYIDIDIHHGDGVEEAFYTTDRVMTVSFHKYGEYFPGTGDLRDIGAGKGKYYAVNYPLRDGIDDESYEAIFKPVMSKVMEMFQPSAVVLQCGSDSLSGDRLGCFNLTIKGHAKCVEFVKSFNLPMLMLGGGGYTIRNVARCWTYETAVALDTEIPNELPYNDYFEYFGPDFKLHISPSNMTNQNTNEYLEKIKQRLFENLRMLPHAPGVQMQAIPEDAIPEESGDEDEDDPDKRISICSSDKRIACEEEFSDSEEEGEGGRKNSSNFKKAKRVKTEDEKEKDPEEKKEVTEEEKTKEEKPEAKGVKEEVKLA

Structure (SMILES)	IC50 (HDAC6) [nM]	IC50 (HDAC1) [nM]	inhibition at 10 µM (glioma cell line U-87MG; [8]) [%]	inhibition at 10 µM [1] [%]	inhibition at 10 µM [2, 9] [%]	inhibition at 10 µM [3, 10] [%]	inhibition at 10 µM [4, 11] [%]	protective effect against HCA-induced neuronal excitotoxicity (cell survival rate) [5]	IC50 (hERG potassium channels) [nM]	MTD at 14 days [6] [mg/kg]	inhibition at 10 µM (glioma cell line U-87MG; 48 h) [%]	inhibition at 10 µM ([2]; HepG2, 48 h) [%]	inhibition at 10 µM ([3]; A549, 48 h) [%]	inhibition at 10 µM ([4]; MRC5, 48 h) [%]	inhibition at 10 µM [7] [%]
COc1ccc2c(c1)CCCCN2Cc1ccc(C(=O)NO)cc1 [Compound T-5, 4-((7-methoxy-2,3,4,5-tetrahydro-1H-benzo[b]azepin-1-yl)methyl)-N-hydroxybenzamide]	5.6	257	80 to 90	90 to 100	90 to 100	70 to 80	< 50	stronger than that of the HDAC6 inhibitor compound Tubastatin A	> 10000	> 1000					
O=C(NO)c1ccc(CN2CCCOc3ccccc32)cc1 [Compound T-15, 4-((3,4-dihydrobenzo[b][1,4]oxazepin-5(2H)-yl)methyl)-N-hydroxybenzamide]	6.2	367	80 to 90	90 to 100	90 to 100	50 to 70	< 50	stronger than that of the HDAC6 inhibitor compound Tubastatin A	> 10000	> 1000					
O=C(NO)c1ccc(CN2CCCSc3ccccc32)cc1 [Compound T-16, 4-((3,4-dihydrobenzo[b][1,4]thiazepin-5(2H)-yl)methyl)-N-hydroxybenzamide]	1.2	254						stronger than that of the HDAC6 inhibitor compound Tubastatin A	> 10000	> 1000	90 to 100	90 to 100	70 to 80	< 50	90 to 100
O=C(NO)c1ccc(CN2CCCC(O)c3ccccc32)cc1 (stereo not shown) [Compound T-19, 4-((5-hydroxy-2,3,4,5-tetrahydro-1H-benzo[b]azepin-1-yl)methyl)-N-hydroxybenzamide]	6.4	442	90 to 100	90 to 100	90 to 100	50 to 70	< 50	stronger than that of the HDAC6 inhibitor compound Tubastatin A	> 10000	> 1000					
COc1ccc(C2CC2)c2c1CCN(Cc1ccc(C(=O)NO)cc1)CC2 [Compound T-28, 4-((6-cyclopropyl-9-methoxy-1,2,4,5-tetrahydro-3H-benzo[d]azepin-3-yl)methyl)-N-hydroxybenzamide]	22	> 500	80 to 90	90 to 100	90 to 100	50 to 70	< 50	stronger than that of the HDAC6 inhibitor compound Tubastatin A	> 10000	> 1000					
O=C(CCCCCCNC(=O)c1cnc(N(c2ccccc2)c2ccccc2)nc1)NO [Rocilinostat (ACY-1215), Rocilinostat, reference compound]											42.1	93.4	51.6	46.7	99.3
